Counter-ions that a name gives are not always drawn.

As usually defined, the IC50 is the concentration that gives 50% inhibition.

The target in this assay is T1, mGlyT-1b (Mus musculus, UniProt P28571).
T1 construct: host or cells: Flp-in-CHO
T1 sequence (P28571 1-651 isoform P28571-2): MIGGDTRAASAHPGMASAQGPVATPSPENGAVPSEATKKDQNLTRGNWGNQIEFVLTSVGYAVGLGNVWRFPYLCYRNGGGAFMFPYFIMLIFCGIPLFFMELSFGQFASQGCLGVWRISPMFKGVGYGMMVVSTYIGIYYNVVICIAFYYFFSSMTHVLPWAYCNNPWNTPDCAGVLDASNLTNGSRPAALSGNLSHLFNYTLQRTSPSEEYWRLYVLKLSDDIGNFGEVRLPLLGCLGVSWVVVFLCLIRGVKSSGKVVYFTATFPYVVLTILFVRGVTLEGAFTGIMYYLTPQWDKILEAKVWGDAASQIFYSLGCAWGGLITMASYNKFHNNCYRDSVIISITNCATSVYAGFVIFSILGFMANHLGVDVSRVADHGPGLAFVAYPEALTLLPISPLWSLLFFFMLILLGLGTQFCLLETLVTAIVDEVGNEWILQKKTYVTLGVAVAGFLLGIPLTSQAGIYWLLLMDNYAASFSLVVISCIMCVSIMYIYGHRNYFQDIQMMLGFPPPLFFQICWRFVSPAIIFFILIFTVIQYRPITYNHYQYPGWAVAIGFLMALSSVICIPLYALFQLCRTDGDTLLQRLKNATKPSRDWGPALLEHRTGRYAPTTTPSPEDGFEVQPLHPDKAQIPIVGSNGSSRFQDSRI
Nature of the assay: Glycine uptake inhibition assay (mGlyT-1b), [3H]-glycine uptake in transfected Flp-in-CHO cells. To be noted: Flp-in-CHO cells transfected with mGlyT-1b cDNA; [3H]-glycine 60 nM and 25 μM non-radioactive glycine; 20 min preincubation at 22° C.; read-out: IC50 (μM) at GlyT-1; Ic50 (hglyt1b). Type of assay: cell-based. How it is done:
Nutrient mixture F-12 (Gibco Life-technologies), fetal bovine serum (FBS) 5%, (Gibco life technologies), Penicillin/Streptomycin 1% (Gibco life technologies), Hygromycin 0.6 mg/ml (Gibco life technologies), Glutamine 1 mM Gibco life technologies).
150 mM NaCl, 10 mM Hepes-Tris, pH 7.4, 1 mM CaCl2, 2.5 mM KCl, 2.5 mM MgSO4, 10 mM (+) D-glucose. Flp-in™-CHO (Invitrogen Cat n° R758-07) cells stably transfected with mGlyT1b cDNA.
Glycine Uptake Inhibition Assay (mGlyT-1b)
On day 1 mammalian cells, (Flp-in™-CHO), transfected with mGlyT-1b cDNA, were plated at the density of 40,000 cells/well in complete F-12 medium, without hygromycin in 96-well culture plates. On day 2, the medium was aspirated and the cells were washed twice with uptake buffer (UB). The cells were then incubated for 20 min at 22° C. with either (i) no potential competitor, (ii) 10 mM non-radioactive glycine, (iii) a concentration of a potential inhibitor. A range of concentrations of the potential inhibitor was used to generate data for calculating the concentration of inhibitor resulting in 50% of the effect (e.g. IC50, the concentration of the competitor inhibiting glycine uptake of 50%). A solution was then immediately added containing [^3H]-glycine 60 nM (11-16 Ci/mmol) and 25 μM non-radioactive glycine. The plates were incubated with gentle shaking and the reaction was stopped by aspiration of the mixture and washing (three times) with ice-cold UB. The cells were lysed with scintillation liquid, shaken 3 hours and the radioactivity in the cells was counted using a scintillation counter.
On to `Cc1nc(OC2CCOC2)ccc1[C@@H](O)[C@@H](N)c1ccc(Cl)c(Cl)c1` (mixture of isomers) [Example 15, rac-erythro-[rac-2-Amino-2-(3,4-dichloro-phenyl)-1-[2-methyl-6-(tetrahydro-furan-3-yloxy)-pyridin-3-yl]-ethanoldihydrochloride], for which the IC50 came out at 0.021 µM.
Turning to `N[C@@H](c1ccc(Cl)c(Cl)c1)[C@H](O)c1ccc(OC2CCOC2)cc1F` (mixture of isomers) [Example 16, rac-erythro-[rac-2-Amino-2-(3,4-dichloro-phenyl)-1-[2-fluoro-4-(tetrahydro-furan-3-yloxy)-phenyl]-ethanol hydrochloride], the IC50 was 0.039 µM.
Turning to `Cc1nc(OC2CCOCC2)ccc1[C@@H](O)[C@@H](N)c1ccc(Cl)c(Cl)c1` (racemic) [Example 17, rac-erythro-[2-Amino-2-(3,4-dichloro-phenyl)-1-[2-methyl-6-(tetrahydro-pyran-4-yloxy)-pyridin-3-yl]-ethanoldihydrochloride], the IC50 was determined as 0.043 µM.
The same measure for `N[C@@H](c1ccc(Cl)c(Cl)c1)[C@H](O)c1ccc(OC2CCOCC2)c(F)c1` (racemic) [Example 18, rac-erythro-[2-Amino-2-(3,4-dichloro-phenyl)-1-[3-fluoro-4-(tetrahydro-pyran-4-yloxy)-phenyl]-ethanol hydrochloride]: 0.049 µM; for `N[C@@H](c1ccc(Cl)c(Cl)c1)[C@H](O)c1ccc(OC2CCOC2)nc1` (mixture of isomers) [Example 19, rac-erythro-[rac-2-Amino-2-(3,4-dichloro-phenyl)-1-[6-(tetrahydro-furan-3-yloxy)-pyridin-3-yl]-ethanoldihydrochloride]: 0.082 µM.
The same measure for `N[C@@H](c1ccc(Cl)c(Cl)c1)[C@H](O)c1cc(F)c(OC2CCOCC2)c(F)c1` (racemic) [Example 20, rac-erythro-[2-Amino-2-(3,4-dichloro-phenyl)-1-[3,5-difluoro-4-(tetrahydro-pyran-4-yloxy)-phenyl]-ethanol hydrochloride]: 0.09 µM; for `Cc1cc(OC2CCOCC2)ncc1[C@@H](O)[C@@H](N)c1ccc(Cl)c(Cl)c1` (racemic) [Example 21, rac-erythro-[2-Amino-2-(3,4-dichloro-phenyl)-1-[4-methyl-6-(tetrahydro-pyran-4-yloxy)-pyridin-3-yl]-ethanoldihydrochloride]: 0.091 µM.
Consider `N[C@@H](c1ccc(Cl)c(Cl)c1)[C@H](O)c1ccc(OC2CCOCC2)nc1` (racemic) [Example 22, rac-erythro-[2-Amino-2-(3,4-dichloro-phenyl)-1-[6-(tetrahydro-pyran-4-yloxy)-pyridin-3-yl]-ethanoldihydrochloride], for which the IC50 was found to be 0.131 µM.
Turning to `N[C@@H](c1ccc(Cl)c(Cl)c1)[C@H](O)c1ccc(OC2CCOC2)cn1` (mixture of isomers) [Example 23, rac-erythro-[rac-2-Amino-2-(3,4-dichloro-phenyl)-1-[5-(tetrahydro-furan-3-yloxy)-pyridin-2-yl]-ethanoldihydrochloride], the IC50 came out at 0.16 µM.
For the molecule `Cc1cc(OC2CCOC2)ncc1[C@@H](O)[C@@H](N)c1ccc(Cl)c(Cl)c1` (mixture of isomers) [Example 24, rac-erythro-[(rac)-2-Amino-2-(3,4-dichloro-phenyl)-1-[4-methyl-6-(tetrahydro-furan-3-yloxy)-pyridin-3-yl]-ethanoldihydrochloride], the IC50 stood at 0.205 µM.
As for `N[C@@H](c1ccc(Cl)c(Cl)c1)[C@H](O)c1ccc(OC2CCOCC2)cn1` (racemic) [Example 25, rac-erythro-[2-Amino-2-(3,4-dichloro-phenyl)-1-[5-(tetrahydro-pyran-4-yloxy)-pyridin-2-yl]-ethanoldihydrochloride], the IC50 was 0.216 µM.
In the case of `Cc1cc([C@@H](O)[C@@H](N)c2ccc(Cl)c(Cl)c2)cnc1OC1CCOCC1` (racemic) [Example 26, rac-erythro-[2-Amino-2-(3,4-dichloro-phenyl)-1-[5-methyl-6-(tetrahydro-pyran-4-yloxy)-pyridin-3-yl]-ethanoldihydrochloride], the IC50 was 0.239 µM.
The same measure for `Cc1nc(OC(C)C)ccc1[C@@H](O)[C@@H](N)c1ccc(Cl)c(Cl)c1` (racemic) [Example 27, rac-erythro-[2-Amino-2-(3,4-dichloro-phenyl)-1-(6-isopropoxy-2-methyl-pyridin-3-yl)-ethanoldihydrochloride]: 0.259 µM; for `N[C@@H](c1ccc(Cl)c(Cl)c1)[C@H](O)c1ccc(OCC2CCCO2)cc1F` (mixture of isomers) [Example 28, rac-erythro-[2-Amino-2-(3,4-dichloro-phenyl)-1-[2-fluoro-4-(tetrahydro-furan-2-ylmethoxy)-phenyl]-ethanol, hydrochloride salt]: 0.33 µM; for `N[C@@H](c1ccc(Cl)c(Cl)c1)[C@H](O)c1ccc(OCC(O)CCCl)cc1F` (mixture of isomers) [Example 29, rac-erythro-[1-[4-[(rac)-2-Amino-2-(3,4-dichloro-phenyl)-1-hydroxy-ethyl]-3-fluoro-phenoxy]-4-chloro-butan-2-ol hydrochloride]: 0.462 µM.
The same measure for `Cc1cc(OC(C)C)ncc1[C@@H](O)[C@@H](N)c1ccc(Cl)c(Cl)c1` (racemic) [Example 30, rac-erythro-[2-Amino-2-(3,4-dichloro-phenyl)-1-(6-isopropoxy-4-methyl-pyridin-3-yl)-ethanoldihydrochloride]: 0.577 µM; for `Cc1cc([C@@H](O)[C@@H](N)c2ccc(Cl)c(Cl)c2)cnc1OC1CCOC1` (mixture of isomers) [Example 31, rac-erythro-[(rac)-2-Amino-2-(3,4-dichloro-phenyl)-1-[5-methyl-6-(tetrahydro-furan-3-yloxy)-pyridin-3-yl]-ethanoldihydrochloride]: 0.646 µM; for `CC(C)Oc1ccc([C@@H](O)[C@@H](N)c2ccc(Cl)c(Cl)c2)nc1` (racemic) [Example 32, rac-erythro-[2-Amino-2-(3,4-dichloro-phenyl)-1-(5-isopropoxy-pyridin-2-yl)-ethanoldihydrochloride]: 0.842 µM.
Then `N[C@@H](c1ccc(Cl)c(Cl)c1)[C@H](O)c1ccc(OC2CCOCC2)cc1F` (racemic) [Example 33, rac-erythro-[2-Amino-2-(3,4-dichloro-phenyl)-1-[2-fluoro-4-(tetrahydro-pyran-4-yloxy)-phenyl]-ethanol hydrochloride], with 0.036 µM.
On to `CC1(COc2ccc([C@@H](O)[C@@H](N)c3ccc(Cl)c(Cl)c3)c(F)c2)COC1` (racemic) [Example 34, rac-erythro-[2-Amino-2-(3,4-dichloro-phenyl)-1-[2-fluoro-4-(3-methyl-oxetan-3-ylmethoxy)-phenyl]-ethanol], for which the IC50 is 0.023 µM.
Then `C[Si](C)(C)c1ccc([C@@H](O)[C@@H](N)c2ccc(Cl)c(Cl)c2)cc1` (racemic) [Example 35, rac-erythro-[2-Amino-2-(3,4-dichloro-phenyl)-1-(4-trimethylsilanyl-phenyl)-ethanol trifluoroacetate], with 0.298 µM; and `C[C@@](O)(c1ccc(-c2ccccc2)cc1)[C@@H](N)c1ccc(Cl)cc1` (racemic) [Example 36, rac-erythro-[1-Amino-2-biphenyl-4-yl-1-(4-chloro-phenyl)-propan-2-ol trifluoroacetate], with 0.3 µM.
Take `CC(C)(C)c1ccc([C@@H](O)[C@@H](N)c2ccc(Cl)c(Cl)c2)cc1` (racemic) [Example 37, rac-erythro-[2-Amino-1-(4-tert-butyl-phenyl)-2-(3,4-dichloro-phenyl)-ethanol trifluoroacetate]: the IC50 was found to be 0.876 µM.
On to `N[C@@H](c1ccc(Cl)c(Cl)c1)[C@H](O)c1ccc(OC(F)(F)C(F)F)cc1` (racemic) [Example 38, rac-erythro-[2-Amino-2-(3,4-dichlorophenyl)-1-[4-(1,1,2,2-tetrafluoro-ethoxy)-phenyl]-ethanol], for which the IC50 was 0.176 µM.

These data come from US8367838B2, “Amines or amino alcohols as GLYT1 inhibitors” (Hoffmann-La Roche Inc., priority 2009, dated 2013).
